According to the supplement of paper PMC10307832:

Experiments:
Experiment in all cases: relative viability (nuclei count vs DMSO), 5 days (fraction); higher = more cells survive
NCI-H322M = tested on: NCI-H322M
How it was run: (§1)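 A single step with final 0.05% Triton X-100, 1% formaldehyde and 1 ug/ml Hoechst fixed the cells and stained nuclei 5 days after treatment. Lung cancer cell lines in 1536-well plates had been treated by pin tool the day after seeding with one drug alone or a fixed anchor-drug dose plus five library-drug doses (not always all listed) in √10 steps, and nuclei were counted on 4× images. Relative viability is the ratio of nuclei in treated wells to nuclei in vehicle wells, taken as the median of duplicate plates.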

SK-LU-1 = tested on: SK-LU-1
How it was run: as §1

NCI-H3122 = tested on: NCI-H3122
How it was run: as §1

NCI-H1915 = tested on: NCI-H1915
How it was run: as §1

EMC-BAC-2 = tested on: EMC-BAC-2
How it was run: as §1

NCI-H1975 = tested on: NCI-H1975
How it was run: as §1

NCI-H2342 = tested on: NCI-H2342
How it was run: as §1

NCI-H1437 = tested on: NCI-H1437
How it was run: as §1

SW 900 = tested on: SW 900
How it was run: as §1

LK-2 = tested on: LK-2
How it was run: as §1

NCI-H838 = tested on: NCI-H838
How it was run: as §1

NCI-H1944 = tested on: NCI-H1944
How it was run: as §1

NCI-H460 = tested on: NCI-H460
How it was run: as §1

NCI-H1755 = tested on: NCI-H1755
How it was run: as §1

PC-14 = tested on: PC-14
How it was run: as §1

NCI-H1355 = tested on: NCI-H1355
How it was run: as §1

NCI-H1666 = tested on: NCI-H1666
How it was run: as §1

NCI-H1648 = tested on: NCI-H1648
How it was run: as §1

RERF-LC-KJ = tested on: RERF-LC-KJ
How it was run: as §1

NCI-H2085 = tested on: NCI-H2085
How it was run: as §1

NCI-H2126 = tested on: NCI-H2126
How it was run: as §1

NCI-H647 = tested on: NCI-H647
How it was run: as §1

LCLC-103H = tested on: LCLC-103H
How it was run: as §1

## C=C1C(=O)O[C@@H](CCCCCCCC)[C@@H]1C(=O)O [C-75] + CC(=O)Nc1cccc(-n2c(=O)n(C3CC3)c(=O)c3c(Nc4ccc(I)cc4F)n(C)c(=O)c(C)c32)c1 [Trametinib] (partner 0.02 µM)
NCI-H322M; first compound 0.08 µM
  relative viability: 0.513
NCI-H322M; first compound 0.253 µM
  relative viability: 0.673
NCI-H322M; first compound 0.8 µM
  relative viability: 0.547
NCI-H322M; first compound 8 µM
  relative viability: 0.508
SK-LU-1; first compound 0.08 µM
  relative viability: 0.494
SK-LU-1; first compound 0.253 µM
  relative viability: 0.598
SK-LU-1; first compound 0.8 µM
  relative viability: 0.49
SK-LU-1; first compound 2.53 µM
  relative viability: 0.458
SK-LU-1; first compound 8 µM
  relative viability: 0.468
NCI-H3122; first compound 0.08 µM
  relative viability: 0.261
NCI-H3122; first compound 0.253 µM
  relative viability: 0.243
NCI-H3122; first compound 0.8 µM
  relative viability: 0.218
NCI-H3122; first compound 2.53 µM
  relative viability: 0.143
NCI-H3122; first compound 8 µM
  relative viability: 0.259
NCI-H1915; first compound 0.08 µM
  relative viability: 0.323
NCI-H1915; first compound 0.253 µM
  relative viability: 0.288
NCI-H1915; first compound 0.8 µM
  relative viability: 0.32
NCI-H1915; first compound 2.53 µM
  relative viability: 0.273
NCI-H1915; first compound 8 µM
  relative viability: 0.359
EMC-BAC-2; first compound 0.08 µM
  relative viability: 0.872
EMC-BAC-2; first compound 0.253 µM
  relative viability: 0.987
EMC-BAC-2; first compound 0.8 µM
  relative viability: 0.853
EMC-BAC-2; first compound 2.53 µM
  relative viability: 0.803
EMC-BAC-2; first compound 8 µM
  relative viability: 0.89
NCI-H1975; first compound 0.08 µM
  relative viability: 0.452
NCI-H1975; first compound 0.253 µM
  relative viability: 0.309
NCI-H1975; first compound 0.8 µM
  relative viability: 0.305
NCI-H1975; first compound 2.53 µM
  relative viability: 0.319
NCI-H1975; first compound 8 µM
  relative viability: 0.41
NCI-H2342; first compound 0.08 µM
  relative viability: 0.956
NCI-H2342; first compound 0.253 µM
  relative viability: 0.813
NCI-H2342; first compound 0.8 µM
  relative viability: 0.687
NCI-H2342; first compound 2.53 µM
  relative viability: 0.65
NCI-H2342; first compound 8 µM
  relative viability: 0.917
NCI-H1437; first compound 0.08 µM
  relative viability: 0.514
NCI-H1437; first compound 0.253 µM
  relative viability: 0.699
NCI-H1437; first compound 0.8 µM
  relative viability: 0.454
NCI-H1437; first compound 8 µM
  relative viability: 0.586
SW 900; first compound 0.08 µM
  relative viability: 1.01
SW 900; first compound 0.253 µM
  relative viability: 0.936
SW 900; first compound 0.8 µM
  relative viability: 0.848
SW 900; first compound 2.53 µM
  relative viability: 0.71
SW 900; first compound 8 µM
  relative viability: 0.829
LK-2; first compound 0.08 µM
  relative viability: 0.719
LK-2; first compound 0.253 µM
  relative viability: 1.31
LK-2; first compound 0.8 µM
  relative viability: 0.822
LK-2; first compound 2.53 µM
  relative viability: 0.521
LK-2; first compound 8 µM
  relative viability: 0.575
NCI-H838; first compound 0.08 µM
  relative viability: 0.524
NCI-H838; first compound 0.253 µM
  relative viability: 0.292
NCI-H838; first compound 0.8 µM
  relative viability: 0.456
NCI-H838; first compound 2.53 µM
  relative viability: 0.422
NCI-H838; first compound 8 µM
  relative viability: 0.388
NCI-H1944; first compound 0.08 µM
  relative viability: 0.397
NCI-H1944; first compound 0.253 µM
  relative viability: 0.465
NCI-H1944; first compound 0.8 µM
  relative viability: 0.361
NCI-H1944; first compound 2.53 µM
  relative viability: 0.367
NCI-H1944; first compound 8 µM
  relative viability: 0.371
NCI-H460; first compound 0.08 µM
  relative viability: 0.215
NCI-H460; first compound 0.253 µM
  relative viability: 0.178
NCI-H460; first compound 0.8 µM
  relative viability: 0.123
NCI-H460; first compound 2.53 µM
  relative viability: 0.104
NCI-H460; first compound 8 µM
  relative viability: 0.151
NCI-H1755; first compound 0.08 µM
  relative viability: 0.763
NCI-H1755; first compound 0.253 µM
  relative viability: 0.748
NCI-H1755; first compound 0.8 µM
  relative viability: 0.76
NCI-H1755; first compound 2.53 µM
  relative viability: 0.677
NCI-H1755; first compound 8 µM
  relative viability: 0.702
PC-14; first compound 0.08 µM
  relative viability: 0.902
PC-14; first compound 0.253 µM
  relative viability: 0.811
PC-14; first compound 0.8 µM
  relative viability: 0.724
PC-14; first compound 2.53 µM
  relative viability: 0.78
PC-14; first compound 8 µM
  relative viability: 0.731
NCI-H1355; first compound 0.08 µM
  relative viability: 0.436
NCI-H1355; first compound 0.253 µM
  relative viability: 0.406
NCI-H1355; first compound 0.8 µM
  relative viability: 0.384
NCI-H1355; first compound 2.53 µM
  relative viability: 0.343
NCI-H1355; first compound 8 µM
  relative viability: 0.448
NCI-H1666; first compound 0.08 µM
  relative viability: 0.869
NCI-H1666; first compound 0.253 µM
  relative viability: 1.01
NCI-H1666; first compound 0.8 µM
  relative viability: 0.807
NCI-H1666; first compound 8 µM
  relative viability: 0.728
NCI-H1648; first compound 0.08 µM
  relative viability: 0.435
NCI-H1648; first compound 0.253 µM
  relative viability: 0.658
NCI-H1648; first compound 0.8 µM
  relative viability: 0.447
NCI-H1648; first compound 8 µM
  relative viability: 0.443
RERF-LC-KJ; first compound 0.08 µM
  relative viability: 0.874
RERF-LC-KJ; first compound 0.253 µM
  relative viability: 0.945
RERF-LC-KJ; first compound 0.8 µM
  relative viability: 0.925
RERF-LC-KJ; first compound 2.53 µM
  relative viability: 0.918
RERF-LC-KJ; first compound 8 µM
  relative viability: 0.866
NCI-H2085; first compound 0.08 µM
  relative viability: 0.519
NCI-H2085; first compound 0.253 µM
  relative viability: 0.666
NCI-H2085; first compound 0.8 µM
  relative viability: 0.466
NCI-H2085; first compound 2.53 µM
  relative viability: 0.559
NCI-H2085; first compound 8 µM
  relative viability: 0.521
NCI-H2126; first compound 0.08 µM
  relative viability: 0.587
NCI-H2126; first compound 0.253 µM
  relative viability: 0.587
NCI-H2126; first compound 0.8 µM
  relative viability: 0.581
NCI-H2126; first compound 2.53 µM
  relative viability: 0.553
NCI-H2126; first compound 8 µM
  relative viability: 0.502
NCI-H647; first compound 0.08 µM
  relative viability: 0.463
NCI-H647; first compound 0.253 µM
  relative viability: 0.533
NCI-H647; first compound 0.8 µM
  relative viability: 0.361
NCI-H647; first compound 2.53 µM
  relative viability: 0.429
NCI-H647; first compound 8 µM
  relative viability: 0.28
LCLC-103H; first compound 0.08 µM
  relative viability: 0.64
LCLC-103H; first compound 0.253 µM
  relative viability: 0.703
LCLC-103H; first compound 0.8 µM
  relative viability: 0.624
LCLC-103H; first compound 2.53 µM
  relative viability: 0.547
LCLC-103H; first compound 8 µM
  relative viability: 0.721
